The values that follow come from patent US9642803B2, “Nano-sized particles comprising multi-headed amphiphiles for targeted drug delivery” (Ben-Gurion University Of The Negev Research And Development …, priority 2009, dated 2017).

The nature of data set [1]: Percentage of encapsulation in bolaamphiphile vesicles. The class given is physicochemical.
Another data set concerns mice. The data set is described as follows: Hot plate test (analgesic effect) in mice. To be noted: for response time: nanoparticles by ethanol injection, encapsulated groups pre-injected with pyridostigmine 0.5 mg/kg; for analgesic effect: i.v. 20 mg/Kg. Format: in vivo. The method, then:
The response of mice to a transient painful stimulus was measured following administration of the test material (either i.v. into the tail vein or per os by gavages). The analgesic effect was determined by placing the mouse on a hot plate (55° C., IITC model 39) and recording the time for withdrawing/licking the hind limb (hot plate test). To prevent tissue damage and suffering of the animal, the experiment was terminated after 20 sec if no response was evoked. The response latencies were recorded and either used by themselves for comparison or normalized as percent of maximal possible effect (MPE) using the equation: […]
where: RT—is the response latency after treatment; RT0—is the response latency of a mouse without treatment and RTmax—is the maximal response time allowed (20 sec).
Derivative 4-nanoparticles comprising leu-enkephalin, prepared as described in Example 9 by FHS (film hydration flowed by sonication), were administered to mice and their ability to exert an analgesic effect was measured by the hot plate test described in Methods.
Nanoparticles were made from 10 mg/ml Derivative 4 with cholesterol and cholesteryl hemisuccinate as additives (2:1:1) and 10% molar ratio chitosan (CS)-vernolic acid conjugate in presence of 2.5 mg/ml leu-enkephalin. In these nanoparticles, CS-vernolic acid conjugate serves as a pendant on the nanoparticles/vesicles in order to enhance penetrability.
Nanoparticles were injected into the tail vein at a dose of 20 mg/kg bolaamphiphile, which corresponds to 5 mg/kg leu-enkephaime. Empty nanoparticles and free leu-enkephalin injected in a dose of 20 mg/kg, were used as a negative control and morphine at a dose of 5 mg/kg was used as a positive control. Mice were pretreated with 0.5 mg/kg pyridostigmine 15 min prior to the injection of the nanoparticles. Pyridostigmine inhibits the activity of acetylcholine esterase and thus prevents hydrolysis of the acetyl choline headgroups in the periphery.
Analgesic effect studies (hot plate test) in mice were carried out using nanoparticles comprising Derivative 1 or Derivative 4 and prepare by the ethanol injection technique described in Example 10. The hot plate test was preformed as described in Example 19. All mice treated with encapsulated leu-enkephalin, were pre-injected with the periphery acetylcholine esterase inhibitor pyridostigmine (0.5 mg/kg).
The efficacy of delivering leu-enkephalin in various nanoparticles in oral formulations versus i.v. injectable formulations were tested (a hot plate test of Example 20). Thus, formulations comprising leu-enkephalin encapsulated in the following nanoparticles were prepared: (a) nanoparticles comprising Derivative 4, cholesterol, cholesteryl hemisuccinate and vernolyl-chitosan prepared according to Example 13(i); (b) nanoparticles comprising distearyl phosphatidyl choline (DSPC) as the amphiphilic compound, cholesterol, prepared as described in Example 13(iii).
Formulations comprising […] leu-enkephalin loaded nanoparticles were administered by gavages at a dose of 100 mg/kg bolaamphiphile, which corresponds to 25 mg/kg leu-enkephalin. The same dose of free leu-enkephalin was administered by gavages as a control. The results were compared to liposomes made from 20 mg/ml DSPC in presence of 5 mg/ml leu-enkephalin and administered at a dose of 200 mg/kg phospholipid, which corresponds to 50 mg/kg leu-enkephalin. The mice were preinjected with pyridostigmine as in example 20. The results, are shown in FIG. 2, represent the analgesic effect as percent of maximal possible response (MPE).
In order to assess an optimized delivery and targeted release efficiencies, the analgesic effect of formulations containing nanoparticles comprising Derivative 4, cholesterol, cholesteryl hemisuccinate and vernoyl chitosan as additives (chitosan nanoparticles), and various amounts of leu-enkephalin was studied by the hot plate test. Nanoparticles were prepared as described in Example 15. […]

For 5(6)-Carboxyfluorescein [CF], in data set [1] (Derivative 4/cholesterol/cholesteryl hemisuccinate/PEG(201) or PEG(202) 100:25:25:10 nanoparticles, PBS pH 8.0), the “percentage of CF encapsulation” value amounted to 20%.
As to `CN(C)C(=O)Oc1ccc[n+](C)c1.[Br-]` [pyridostigmine, 3-(Dimethylamino-carbonyloxy)-1-methylpyridinium bromide], in the data set on mice (0.5 mg/kg), the “analgesic response of pyridostigmine by itself” value is “does not evoke an analgesic response”.
Take “[5-Leucine] Enkephalin [free leu-enkephalin]”: the response time in the data set on mice (10 minutes after i.v. injection) amounted to 3 s; with mice (30 minutes after i.v. injection) it was 2 s; with mice (60 minutes after i.v. injection), 2 s. The analgesic effect entry with mice (mice pretreated with pyridostigmine, Example 27) is listed as “no significant analgesic effect”; with mice (Example 28) it was “no significant analgesic effect”. Moreover, the “percentage of encapsulation at pH above pI relative to pH below pI” value in data set [1] (Derivative 4/cholesterol/cholesteryl hemisuccinate nanoparticles, TBS pH 8.5) was in the range of 2 to 4 times.
